Experimental data taken from paper PMC7852560 (Neuropsychopharmacology, 2020).
Values joined by “and” are separate entries in the source; they are usually repeats but may differ in a detail not shown here. Equal values may be shown once. Read-outs that look alike come from different tables or passages of the source.

Tests used:
CB1R [1] = target: T1, CB1R (Homo sapiens, UniProt P21554); test: cell-based; set-up: beta-galactosidase enzyme fragment (EFC; ProLink by own knowledge); details: in the presence of the EC80 of CP55,940 (10 nM)
Protocol: The PathHunter® β-Arrestin assay was conducted by Eurofins Pharma Discovery Services (further details can be found at https://www.eurofinsdiscoveryservices.com).
The PathHunter® β-Arrestin assay was conducted by Eurofins Pharma Discovery Services. The assay monitors the activation of a GPCR in a homogenous, non-imaging assay format using a technology developed by DiscoverX called Enzyme Fragment Complementation (EFC) with β-galactosidase (β-Gal) as the functional reporter. Vehicle concentration was 1% DMSO in these assays.

5HT1B = target: T2, 5HT1B (Rattus norvegicus, UniProt P28564); test: SafetyScreen44 panel: 5HT1B; type: binding; details: 1 µM
T2 construct: Eurofins Cerep
Protocol: (§1) The screen assesses the selectivity of the compound on a diverse panel of targets that includes GPCRs, drug transporters, ion channels, nuclear receptors, kinases, and other non-kinase enzymes. The screen employs radioligand binding or enzyme assays for these 44 targets.
(§2) For receptor assays, binding was calculated as percent inhibition of the binding of a radioactively labeled ligand specific for each target. For enzyme assays, the inhibition effect was calculated as percent inhibition of control enzyme activity. Tests were performed in duplicate, and results are averages of those two tests. See https://www.eurofinsdiscoveryservices.com.

in vitro [2] = type: in vitro ADME, human; details: pH 7.4
Protocol: (§3) Microsomal stability assays were conducted by Cyprotex Ltd (Macclesfield, UK).
(§4) The study of drug stability in the presence of liver microsomes is accepted as a valuable model for permitting rapid prediction of in vivo drug stability (see Kerns & Di, 2008). Microsomal stability studies were performed by Cyprotex Ltd (Macclesfield, UK). […] Microsomes (final protein concentration 0.5 mg/mL), 0.1 M phosphate buffer pH 7.4, and test compound (final concentration 3 μM; diluted from 10 mM stock solution to give a final DMSO concentration of 0.25%) were incubated at 37°C prior to the addition of NADPH (final concentration 1 mM) to initiate the reaction with a final incubation volume of 25 µL. A control incubation was included for each compound tested, where 0.1 M phosphate buffer pH 7.4 was added instead of NADPH. The control compounds testosterone and 7-hydroxycoumarin were included in each experiment and all incubations were performed singularly for each compound. […] Following protein precipitation, the sample supernatants were combined in cassettes of up to 4 compounds and analyzed using standard LC-MS/MS conditions. From a plot of the natural logarithm of the peak area ratio (i.e., the ratio of compound peak area: internal standard peak area) against time, the gradient of the line was determined. Subsequently, half-life and intrinsic clearance were calculated using the equations below: […]

Male Sprague Dawley rats = test: Conditioned avoidance response (CAR); type: in vivo; details: rat, in vivo
Protocol: Male Sprague Dawley rats (PD>63) were trained on a CAR protocol and responding following drug exposure was determined. […] Animals were trained to learn a house light (CS) as predictive of an avoidable 0.6mA scrambled foot shock (US). Each session consisted of 50 trials and animals avoided >70% of trials on the final acquisition session were tested for CAR during vehicle baseline, drug exposure, and re-emergence. In addition to CAR testing, both temperature and catalepsy were recorded in these animals (measure of potential CB1R agonism). Temperature: recorded on first day of drug exposure, prior to injection and 60-90-min. following drug exposure.

CB1R [3] = target: T1, CB1R; test: Equilibrium binding assay with [3H]CP55,940 in hCB1R CHO cells
Protocol: Non-specific binding was defined in the presence of 10 µM WIN55,212-2.
Radioactivity was quantitated by liquid scintillation spectrometry. Specific binding was defined as the difference between the binding that occurred in the presence and absence of 10 µM of WIN55212. Data were analyzed by nonlinear regression analysis of allosteric modulator titration model using GraphPad Prism 8.0 (GraphPad, San Diego, CA).

Dopamine D1 = Dopamine D1 (Homo sapiens, UniProt P21728); test: SafetyScreen44 panel: Dopamine D1; type: binding; details: 1 µM
Protocol: as §1, §2

[4] = tested on: 44 different receptors, ion channels and enzymes; details: 1 µM
Protocol: as §1, §2

5HT3 = target: T3, 5HT3 (Homo sapiens, UniProt P46098); test: SafetyScreen44 panel: 5HT3; type: binding; details: 1 µM
T3 construct: Eurofins Cerep
T3 sequence (P46098 24-478): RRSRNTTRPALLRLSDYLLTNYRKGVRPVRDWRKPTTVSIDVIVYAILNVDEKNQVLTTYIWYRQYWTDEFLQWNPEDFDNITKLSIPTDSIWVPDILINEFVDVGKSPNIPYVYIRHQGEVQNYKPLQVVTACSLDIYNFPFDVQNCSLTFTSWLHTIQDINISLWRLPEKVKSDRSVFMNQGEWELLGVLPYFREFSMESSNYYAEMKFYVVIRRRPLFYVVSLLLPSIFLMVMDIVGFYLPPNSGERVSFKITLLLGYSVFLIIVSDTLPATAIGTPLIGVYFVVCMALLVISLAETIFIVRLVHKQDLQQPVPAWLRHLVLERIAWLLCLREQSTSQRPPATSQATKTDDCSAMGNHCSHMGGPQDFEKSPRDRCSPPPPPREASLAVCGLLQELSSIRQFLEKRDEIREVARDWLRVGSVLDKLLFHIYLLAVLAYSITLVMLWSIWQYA
Protocol: as §1, §2

5HT2B = target: T4, 5HT2B (Homo sapiens, UniProt P41595); test: SafetyScreen44 panel: 5HT2B; type: binding; details: 1 µM
T4 construct: Eurofins Cerep
From the text: (§5) See https://www.eurofinsdiscoveryservices.com.

GluN1KD mice = test: Open-field test in GluN1KD mice; details: ABM300 10 mg/kg, OLA 1 mg/kg i.p., 30 min before test
NMDA = test: SafetyScreen44 panel: NMDA; type: binding; details: 1 µM
From the text: as §5

DATKO mice = test: Open-field test in DATKO mice; details: 10 mg/kg i.p., 30 min before test
in vitro [5] = type: in vitro ADME, rat; details: pH 7.4
Protocol: as §3, §4

T1 sequence (P21554 whole entry, the tested form may be a part): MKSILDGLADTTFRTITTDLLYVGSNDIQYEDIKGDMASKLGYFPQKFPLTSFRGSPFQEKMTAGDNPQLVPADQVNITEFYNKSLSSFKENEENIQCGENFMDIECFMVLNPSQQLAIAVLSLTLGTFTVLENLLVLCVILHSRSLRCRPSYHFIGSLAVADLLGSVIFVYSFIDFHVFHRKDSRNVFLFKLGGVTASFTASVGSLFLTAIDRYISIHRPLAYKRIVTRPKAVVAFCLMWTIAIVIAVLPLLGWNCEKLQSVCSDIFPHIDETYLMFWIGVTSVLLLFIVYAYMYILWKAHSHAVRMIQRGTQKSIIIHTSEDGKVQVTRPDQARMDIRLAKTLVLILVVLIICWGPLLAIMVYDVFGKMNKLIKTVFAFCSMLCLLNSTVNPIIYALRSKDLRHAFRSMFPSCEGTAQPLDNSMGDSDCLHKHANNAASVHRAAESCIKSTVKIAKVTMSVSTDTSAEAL
Sequence of Dopamine D1 (P21728 whole entry): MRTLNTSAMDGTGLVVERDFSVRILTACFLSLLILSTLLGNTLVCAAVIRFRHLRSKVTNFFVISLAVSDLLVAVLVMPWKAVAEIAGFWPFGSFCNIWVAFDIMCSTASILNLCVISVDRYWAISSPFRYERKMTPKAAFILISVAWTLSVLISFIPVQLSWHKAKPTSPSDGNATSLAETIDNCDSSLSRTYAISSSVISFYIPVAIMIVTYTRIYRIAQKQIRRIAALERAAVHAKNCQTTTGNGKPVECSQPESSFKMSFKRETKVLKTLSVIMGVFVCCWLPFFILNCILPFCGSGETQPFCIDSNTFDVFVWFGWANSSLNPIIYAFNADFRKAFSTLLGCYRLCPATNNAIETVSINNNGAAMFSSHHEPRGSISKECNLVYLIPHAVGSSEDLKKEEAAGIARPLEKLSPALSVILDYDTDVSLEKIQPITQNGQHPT
T4 sequence (P41595 whole entry): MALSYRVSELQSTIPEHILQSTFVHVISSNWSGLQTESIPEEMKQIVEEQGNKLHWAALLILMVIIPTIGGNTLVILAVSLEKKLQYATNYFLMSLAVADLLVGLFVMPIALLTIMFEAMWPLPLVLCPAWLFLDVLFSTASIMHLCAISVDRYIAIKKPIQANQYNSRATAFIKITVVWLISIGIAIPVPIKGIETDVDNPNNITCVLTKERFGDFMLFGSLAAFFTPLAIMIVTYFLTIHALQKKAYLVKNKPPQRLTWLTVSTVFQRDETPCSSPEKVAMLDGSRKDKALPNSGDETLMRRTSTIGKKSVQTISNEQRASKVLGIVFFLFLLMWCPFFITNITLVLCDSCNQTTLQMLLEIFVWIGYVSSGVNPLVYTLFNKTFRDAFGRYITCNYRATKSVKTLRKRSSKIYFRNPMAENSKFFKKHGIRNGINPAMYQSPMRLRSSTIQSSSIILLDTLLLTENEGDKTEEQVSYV
T2 sequence (P28564 whole entry): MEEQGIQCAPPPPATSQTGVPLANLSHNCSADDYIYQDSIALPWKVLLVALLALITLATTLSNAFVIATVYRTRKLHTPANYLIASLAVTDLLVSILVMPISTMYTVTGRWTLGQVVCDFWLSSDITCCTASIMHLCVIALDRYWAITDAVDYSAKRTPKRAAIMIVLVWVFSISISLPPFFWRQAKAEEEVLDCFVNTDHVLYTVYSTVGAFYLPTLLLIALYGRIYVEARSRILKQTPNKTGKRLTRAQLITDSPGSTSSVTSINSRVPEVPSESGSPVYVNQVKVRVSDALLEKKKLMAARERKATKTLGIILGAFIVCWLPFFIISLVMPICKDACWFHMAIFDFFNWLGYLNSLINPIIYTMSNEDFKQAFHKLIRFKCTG

SMILES: CCc1c(-c2nnc(Nc3ccccc3)o2)[nH]c2ccc(Cl)cc12 [ABM300, 5-(5-chloro-3-ethyl-1H-indol-2-yl)-N-phenyl-1,3,4-oxadiazol-2-amine]
- IC50 (CB1R [1]; read-out: IC50, reduction in β-arrestin recruitment): 49.7 nM and 50 nM
- IC50 (CB1R [1]; read-out: pIC50, reduction in β-arrestin recruitment (converted)): 49 nM
- binding to 5HT1B (5HT1B): did not display any significant binding
- half-life at 3 µM (in vitro [2]; microsomes, human liver microsomal preparations): 1.82 h
- microsomal CLint at 3 µM (in vitro [2]; human liver microsomes): 12.7 ± 3.4 µL/min/mg
- avoidance behavior in CAR (Male Sprague Dawley rats): no effect
- Kb (CB1R [3]): 178 nM
- EC50 (CB1R [3]; EC50, increase in specific binding of [3H]CP55,940, hCB1R CHO, [3H]CP55,940 0.5 nM): 132 nM
- Emax, increase in specific binding of [3H]CP55,940 (CB1R [3]; hCB1R CHO, [3H]CP55,940 0.5 nM): 328 ± 47%
- EC50 (CB1R [3]; pEC50, increase in specific binding of [3H]CP55,940, hCB1R CHO, [3H]CP55,940 0.5 nM): 126 nM
- binding to Dopamine D1 (Dopamine D1): did not display any significant binding
- binding to SafetyScreen44 targets [4]: did not display any significant binding
- binding to 5HT3 (5HT3): did not display any significant binding
- binding to 5HT2B (5HT2B): did not display any significant binding
- exaggerated stereotypic activity (GluN1KD mice): significantly reduced
- novelty-induced hyperactivity (distance traveled) (GluN1KD mice): decreases
- rearing behavior (vertical exploration) (GluN1KD mice): significantly reduced
- binding to NMDA (NMDA): did not display any significant binding
- dysregulated hyperactivity (total distance traveled) (DATKO mice): normalized
- stereotypic movements (DATKO mice): normalized
- vertical exploration (DATKO mice): normalized
- half-life at 3 µM (in vitro [5]; microsomes, rat liver microsomal preparations): 1.83 h
- microsomal CLint at 3 µM (in vitro [5]; rat liver microsomes): 12.6 ± 2 µL/min/mg
